# Laboratory results from patent US8962842B2, “2-pyridone antimicrobial compositions” (priority 2010, dated 2015).
# Read-outs that look alike come from different tables or passages of the source.
# Legend:
# [1] = system: Pseudomonas aeruginosa (12 strains); assay: MIC range, broader panel of Quotient Bioresearch strains (Table 4); type: cell-based; conditions: for MIC50: read-out: MIC Range Median, Pseudomonas aeruginosa (12 strains)
# [2] = system: Streptococcus pyogenes (4 strains); assay: MIC range, broader panel of Quotient Bioresearch strains (Table 3); conditions: for MIC50: read-out: MIC Range Median, Streptococcus pyogenes (4 strains)
# [3] = target: bacterial topoisomerase IV (Escherichia coli, UniProt P0AFI2+P20083); assay: Inhibition of topoisomerases activity in vitro, Topogen protocol TG1007 (Table 7); type: biochemical
# bacterial topoisomerase IV, sequence (P20083 whole entry): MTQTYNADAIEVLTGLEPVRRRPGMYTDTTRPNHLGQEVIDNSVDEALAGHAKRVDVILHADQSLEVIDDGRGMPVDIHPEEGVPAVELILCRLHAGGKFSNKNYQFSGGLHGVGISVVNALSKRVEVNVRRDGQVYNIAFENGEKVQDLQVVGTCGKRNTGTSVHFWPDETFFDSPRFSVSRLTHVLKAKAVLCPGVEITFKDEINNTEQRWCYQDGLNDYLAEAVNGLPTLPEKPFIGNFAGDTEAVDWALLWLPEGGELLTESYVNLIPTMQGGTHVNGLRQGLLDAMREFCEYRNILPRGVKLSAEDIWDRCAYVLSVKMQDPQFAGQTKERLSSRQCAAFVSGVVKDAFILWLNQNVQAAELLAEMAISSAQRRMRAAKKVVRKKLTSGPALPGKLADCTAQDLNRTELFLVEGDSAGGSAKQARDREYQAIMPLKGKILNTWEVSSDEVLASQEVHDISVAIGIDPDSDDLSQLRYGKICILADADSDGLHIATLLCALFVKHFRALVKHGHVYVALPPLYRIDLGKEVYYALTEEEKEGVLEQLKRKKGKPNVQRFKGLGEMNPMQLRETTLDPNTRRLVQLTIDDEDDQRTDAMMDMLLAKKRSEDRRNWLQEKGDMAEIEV
# bacterial topoisomerase IV, sequence (P0AFI2 whole entry): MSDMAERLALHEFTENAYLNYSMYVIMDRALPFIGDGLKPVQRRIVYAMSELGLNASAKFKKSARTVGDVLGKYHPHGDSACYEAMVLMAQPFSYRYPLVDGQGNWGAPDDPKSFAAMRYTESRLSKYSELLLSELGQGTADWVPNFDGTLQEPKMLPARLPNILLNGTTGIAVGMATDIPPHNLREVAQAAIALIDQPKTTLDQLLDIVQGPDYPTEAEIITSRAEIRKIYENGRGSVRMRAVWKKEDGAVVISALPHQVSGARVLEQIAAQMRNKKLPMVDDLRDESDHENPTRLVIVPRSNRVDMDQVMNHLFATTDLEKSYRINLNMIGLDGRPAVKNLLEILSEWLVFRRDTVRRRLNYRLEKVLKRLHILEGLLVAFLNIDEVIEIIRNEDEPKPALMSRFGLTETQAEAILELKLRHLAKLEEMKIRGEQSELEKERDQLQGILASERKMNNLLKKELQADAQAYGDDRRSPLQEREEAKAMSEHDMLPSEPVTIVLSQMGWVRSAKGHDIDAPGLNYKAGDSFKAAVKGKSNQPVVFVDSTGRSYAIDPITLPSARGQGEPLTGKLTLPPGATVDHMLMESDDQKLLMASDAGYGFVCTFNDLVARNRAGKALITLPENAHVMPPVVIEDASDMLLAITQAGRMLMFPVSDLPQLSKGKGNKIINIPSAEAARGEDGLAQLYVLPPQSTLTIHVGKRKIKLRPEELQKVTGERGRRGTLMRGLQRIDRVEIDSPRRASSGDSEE
# [4] = system: Enterococcus faecium (3 strains); assay: MIC range, broader panel of Quotient Bioresearch strains (Table 3); conditions: for MIC: read-out: MIC Range Low, Enterococcus faecium (3 strains); for MIC50: read-out: MIC Range Median, Enterococcus faecium (3 strains)
# [5] = system: Acinetobacter baumannii (12 strains); assay: MIC range, broader panel of Quotient Bioresearch strains (Table 4); type: cell-based; conditions: for MIC50: read-out: MIC Range Median, Acinetobacter baumannii (12 strains)
# [6] = system: Klebsiella pneumonia (4 strains); assay: as above; type: cell-based; conditions: Klebsiella pneumoniae; for MIC50: read-out: MIC Range Median, Klebsiella pneumonia (4 strains)
# [7] = system: Enterococcus faecalis (5 strains); assay: MIC range, broader panel of Quotient Bioresearch strains (Table 3); conditions: for MIC50: read-out: MIC Range Median, Enterococcus faecalis (5 strains)
# [8] = system: Haemophilus influenza (5 strains); assay: MIC range, broader panel of Quotient Bioresearch strains (Table 4); type: cell-based, Haemophilus influenzae; conditions: for MIC50: 16 h, Median of the strain panel
# [9] = system: Bacterial strains injected into thigh muscles; type: in vivo, mice
# physchem = type: physicochemical; conditions: thermodynamic from solid
# Procedure: The solutions were incubated at room temperature for 24 hours before quantification by HPLC detection. Aqueous solubility was evaluated in simulated gastric fluid (SGF), simulated intestinal fluid (SIF) and phosphate buffer saline (PBS) pH 7.4. Aqueous solubility is expressed in Table 11 as mean solubility in μM.
# [10] = system: Staphylococcus aureus (16 strains); assay: MIC range, broader panel of Quotient Bioresearch strains (Table 3); conditions: for MIC50: read-out: MIC Range Median, Staphylococcus aureus (16 strains)
# [11] = system: Acinetobacter baumannii, quinolone-resistant strains (Quotient Bioresearch catalogue); assay: MIC against pathogens resistant against quinolones (Table 5); type: cell-based; conditions: Acinetobacter baumannii, GN54
# [12] = Metabolic stability in liver microsomes +/- S9 fraction (Table 8); type: in vitro ADME; conditions: 1 μM
# Procedure: Metabolic stability of a select number of examples was tested in liver microsomes+/−addition of S9 fraction as described by Kuhnz, W. and Gieschen, H. (1998), Drug Metab. Dispos., 1120-1127. Test concentration was 1 μM and HPLC/MS-MS was used for detection.
# [13] = system: Burkholderia cepacia (5 strains); assay: MIC range, broader panel of Quotient Bioresearch strains (Table 4); type: cell-based; conditions: for MIC50: read-out: MIC Range Median, Burkholderia cepacia (5 strains)
# [14] = system: Streptococcus pneumonia (5 strains); assay: MIC range, broader panel of Quotient Bioresearch strains (Table 3); conditions: Streptococcus pneumoniae; for MIC: read-out: MIC Range Low, Streptococcus pneumonia (5 strains); for MIC50: read-out: MIC Range Median, Streptococcus pneumonia (5 strains)
# bacterial gyrase = bacterial gyrase (Escherichia coli, UniProt P0AES4+P0AES6); assay: Inhibition of topoisomerases activity in vitro, Topogen protocol TG1003 (Table 7); type: biochemical
# bacterial gyrase, sequence (P0AES4 whole entry, one chain of several): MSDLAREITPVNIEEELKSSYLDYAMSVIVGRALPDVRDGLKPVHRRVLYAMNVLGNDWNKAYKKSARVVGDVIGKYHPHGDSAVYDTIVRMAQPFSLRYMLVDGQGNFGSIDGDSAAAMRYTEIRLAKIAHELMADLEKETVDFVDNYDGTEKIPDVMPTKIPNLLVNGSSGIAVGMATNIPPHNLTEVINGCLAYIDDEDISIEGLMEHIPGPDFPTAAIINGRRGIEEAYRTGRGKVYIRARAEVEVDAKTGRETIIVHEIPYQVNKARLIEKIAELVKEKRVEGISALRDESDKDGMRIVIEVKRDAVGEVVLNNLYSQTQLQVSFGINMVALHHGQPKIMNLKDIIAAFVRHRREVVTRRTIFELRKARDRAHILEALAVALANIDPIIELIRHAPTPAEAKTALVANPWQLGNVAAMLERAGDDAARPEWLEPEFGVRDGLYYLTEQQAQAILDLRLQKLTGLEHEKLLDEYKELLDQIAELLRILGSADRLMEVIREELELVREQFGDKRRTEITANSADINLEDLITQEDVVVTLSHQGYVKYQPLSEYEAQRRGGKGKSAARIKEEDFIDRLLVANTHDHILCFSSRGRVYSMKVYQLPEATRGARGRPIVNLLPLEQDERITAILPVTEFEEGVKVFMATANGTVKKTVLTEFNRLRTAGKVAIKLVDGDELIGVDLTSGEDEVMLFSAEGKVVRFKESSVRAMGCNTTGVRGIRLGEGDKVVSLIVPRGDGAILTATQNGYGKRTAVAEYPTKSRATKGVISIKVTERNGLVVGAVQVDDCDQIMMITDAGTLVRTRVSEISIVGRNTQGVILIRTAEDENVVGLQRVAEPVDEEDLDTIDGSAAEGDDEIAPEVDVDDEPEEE
# [15] = system: Group C Streptococcus (4 strains); assay: MIC range, broader panel of Quotient Bioresearch strains (Table 3); conditions: for MIC50: read-out: MIC Range Median, Group C Streptococcus (4 strains)
# [16] = system: Escherichia coli (6 strains); assay: MIC range, broader panel of Quotient Bioresearch strains (Table 4); type: cell-based; conditions: for MIC50: read-out: MIC Range Median, Escherichia coli (6 strains)
# human topoisomerase I = target: T1, human topoisomerase I (Homo sapiens, UniProt P11387); assay: Inhibition of topoisomerases activity in vitro, Topogen protocol TG1015 (Table 7); type: biochemical; conditions: read-out: IC50 hTopo I Assay
# T1 construct: purchased Topogen Inc., Port Orange, USA TG1015
# T1 sequence (P11387 1-765): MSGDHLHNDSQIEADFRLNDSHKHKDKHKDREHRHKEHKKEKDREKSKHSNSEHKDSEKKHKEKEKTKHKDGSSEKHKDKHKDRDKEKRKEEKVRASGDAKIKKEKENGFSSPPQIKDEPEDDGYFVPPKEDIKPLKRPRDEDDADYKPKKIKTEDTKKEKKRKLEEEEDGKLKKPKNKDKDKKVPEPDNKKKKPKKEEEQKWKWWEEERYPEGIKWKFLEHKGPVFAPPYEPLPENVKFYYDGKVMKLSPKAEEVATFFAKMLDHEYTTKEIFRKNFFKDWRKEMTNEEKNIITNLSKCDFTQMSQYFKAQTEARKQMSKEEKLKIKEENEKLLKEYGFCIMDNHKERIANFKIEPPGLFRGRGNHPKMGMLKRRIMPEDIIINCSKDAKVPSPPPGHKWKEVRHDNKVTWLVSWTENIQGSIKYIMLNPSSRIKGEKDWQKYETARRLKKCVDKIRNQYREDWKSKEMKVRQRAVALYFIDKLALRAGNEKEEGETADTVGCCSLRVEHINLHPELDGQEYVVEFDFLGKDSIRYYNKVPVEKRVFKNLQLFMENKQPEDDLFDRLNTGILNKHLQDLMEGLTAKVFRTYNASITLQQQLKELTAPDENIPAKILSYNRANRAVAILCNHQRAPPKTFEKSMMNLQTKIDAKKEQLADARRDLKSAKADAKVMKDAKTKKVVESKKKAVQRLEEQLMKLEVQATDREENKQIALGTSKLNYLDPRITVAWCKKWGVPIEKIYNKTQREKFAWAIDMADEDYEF
# [17] = read-out: MIC Range High, Pseudomonas aeruginosa (12 strains)
# [18] = read-out: MIC Range Low, Pseudomonas aeruginosa (12 strains)
# [19] = read-out: MIC Range High, Streptococcus pyogenes (4 strains)
# [20] = read-out: MIC Range Low, Streptococcus pyogenes (4 strains)
# [21] = read-out: MIC Range High, Acinetobacter baumannii (12 strains)
# [22] = read-out: MIC Range Low, Acinetobacter baumannii (12 strains)
# [23] = read-out: MIC Range High, Klebsiella pneumonia (4 strains)
# [24] = read-out: MIC Range Low, Klebsiella pneumonia (4 strains)
# [25] = read-out: MIC Range Low, Enterococcus faecalis (5 strains)
# [26] = High of the strain panel, read-out: MIC Range High, Haemophilus influenza (5 strains)
# [27] = Low of the strain panel, read-out: MIC Range Low, Haemophilus influenza (5 strains)
# [28] = E. coli ATCC 25922, mouse thigh, 30 mg/kg TDS p.o.
# [29] = MRSA ATCC 43300, mouse thigh, 30 mg/kg TDS p.o.
# [30] = read-out: MIC Range Low, Staphylococcus aureus (16 strains)
# [31] = read-out: MIC Range High, Burkholderia cepacia (5 strains)
# [32] = read-out: MIC Range Low, Burkholderia cepacia (5 strains)
# [33] = read-out: MIC Range High, Group C Streptococcus (4 strains)
# [34] = read-out: MIC Range Low, Group C Streptococcus (4 strains)
# [35] = read-out: MIC Range High, Escherichia coli (6 strains)
# [36] = read-out: MIC Range Low, Escherichia coli (6 strains)
smiles,measurement,setting,value
"Cc1c(-c2ccc(N)nc2)ccn2c(=O)c(C(=O)[O-])cc(C3CC3)c12.[K+] [Example 21 K salt, potassium 8-(6-amino-pyridin-3-yl)-1-cyclopropyl-9-methyl-4-oxo-4H-quinolizine-3-carboxylate]",MIC,[1]; [17],32 µg/mL
same,MIC,[1]; [18],0.5 µg/mL
same,MIC50,[1],8 µg/mL
same,MIC,[2]; [19],0.12 µg/mL
same,MIC,[2]; [20],0.06 µg/mL
same,MIC50,[2],0.06 µg/mL
same,IC50,[3],≤ 2330 nM
same,MIC,[4],0.25 µg/mL
same,MIC50,[4],1 µg/mL
same,MIC,[5]; [21],16 µg/mL
same,MIC,[5]; [22],0.03 µg/mL
same,MIC50,[5],4 µg/mL
same,MIC,[6]; [23],32 µg/mL
same,MIC,[6]; [24],0.06 µg/mL
same,MIC50,[6],9 µg/mL
same,MIC,"[7]; read-out: MIC Range High, Enterococcus faecalis (5 strains)",2 µg/mL
same,MIC,[7]; [25],0.03 µg/mL
same,MIC50,[7],0.12 µg/mL
same,MIC50,[8],≤ 0.015 µg/mL
same,MIC,[8]; [26],≤ 0.015 µg/mL
same,MIC,[8]; [27],≤ 0.015 µg/mL
same,Log reduction (LgR) from vehicle control (CFU/g),[9]; [28],3.13
same,Log reduction (LgR) from vehicle control (CFU/g),[9]; [29],4.93
same,solubility at 24 h,physchem; fassgf or other biorelevant,200 µM
same,solubility at 24 h,"physchem; pH 7.4, aqueous buffer",200 µM
same,solubility at 24 h,physchem; simulated gastric fluid,200 µM
same,MIC,[10]; [30],≤ 0.015 µg/mL
same,MIC50,[10],0.25 µg/mL
same,MIC,[11],4 µg/mL
same,Mean Parent Remaining,"[12]; Liver microsomes + S9, human",93%
same,Mean Parent Remaining,"[12]; Liver microsomes + S9, mouse",97%
same,Mean Parent Remaining,"[12]; Liver microsomes, human",85%
same,Mean Parent Remaining,"[12]; Liver microsomes, mouse",87%
same,MIC,[13]; [31],0.25 µg/mL
same,MIC,[13]; [32],0.12 µg/mL
same,MIC50,[13],0.25 µg/mL
same,MIC,[14],0.06 µg/mL
same,MIC50,[14],0.06 µg/mL
same,IC50,bacterial gyrase,≤ 1490 nM
same,MIC,[15]; [33],0.06 µg/mL
same,MIC,[15]; [34],0.03 µg/mL
same,MIC50,[15],0.03 µg/mL
same,MIC,[16]; [35],32 µg/mL
same,MIC,[16]; [36],≤ 0.015 µg/mL
same,MIC50,[16],16 µg/mL
"O=C(O)c1cn(C2CC2)c2cc(N3CCNCC3)c(F)cc2c1=O [Ciprofloxacin, reference compound]",IC50,human topoisomerase I,> 150 µM
same,Log reduction (LgR) from vehicle control (CFU/g),"[9]; MRSA ATCC 43300, mouse thigh, 20 mg/kg i.v. TDS",2.36
"Cc1c(-c2ccc(O)cc2)ccn2c(=O)c(C(=O)[O-])cc(C3CC3)c12.[K+] [Example 46 K salt, potassium 1-cyclopropyl-8-(4-hydroxy-phenyl)-9-methyl-4-oxo-4H-quinolizine-3-carboxylate]",MIC,[1]; [17],> 32 µg/mL
same,MIC,[1]; [18],0.25 µg/mL
same,MIC50,[1],4 µg/mL
same,MIC,[2]; [19],0.12 µg/mL
same,MIC,[2]; [20],0.03 µg/mL
same,MIC50,[2],0.06 µg/mL
same,MIC,[4],0.12 µg/mL
same,MIC50,[4],0.5 µg/mL
same,MIC,[5]; [21],16 µg/mL
same,MIC,[5]; [22],0.03 µg/mL
same,MIC50,[5],4 µg/mL
same,MIC,[6]; [23],> 32 µg/mL
same,MIC,[6]; [24],0.06 µg/mL
same,MIC50,[6],18 µg/mL
same,MIC,[7]; [25],≤ 0.015 µg/mL
same,MIC50,[7],0.03 µg/mL
same,MIC50,[8],≤ 0.015 µg/mL
same,MIC,[8]; [26],≤ 0.015 µg/mL
same,MIC,[8]; [27],≤ 0.015 µg/mL
same,Log reduction (LgR) from vehicle control (CFU/g),[9]; [28],0.37
same,Log reduction (LgR) from vehicle control (CFU/g),[9]; [29],3.76
same,solubility at 24 h,physchem; fassgf or other biorelevant,153 µM
same,solubility at 24 h,"physchem; pH 7.4, aqueous buffer",44 µM
same,solubility at 24 h,physchem; simulated gastric fluid,7 µM
same,MIC,"[10]; read-out: MIC Range High, Staphylococcus aureus (16 strains)",0.12 µg/mL
same,MIC,[10]; [30],≤ 0.015 µg/mL
same,MIC50,[10],0.06 µg/mL
same,MIC,[11],2 µg/mL
same,Mean Parent Remaining,"[12]; Liver microsomes + S9, human",97%
same,Mean Parent Remaining,"[12]; Liver microsomes + S9, mouse",92%
same,Mean Parent Remaining,"[12]; Liver microsomes, human",86%
same,Mean Parent Remaining,"[12]; Liver microsomes, mouse",81%
same,MIC,[13]; [31],0.12 µg/mL
same,MIC,[13]; [32],0.06 µg/mL
same,MIC50,[13],0.12 µg/mL
same,MIC,[14],0.06 µg/mL
same,MIC50,[14],0.06 µg/mL
same,MIC,[15]; [33],0.06 µg/mL
same,MIC,[15]; [34],0.03 µg/mL
same,MIC50,[15],0.045 µg/mL
same,MIC,[16]; [35],32 µg/mL
same,MIC,[16]; [36],≤ 0.015 µg/mL
same,MIC50,[16],12 µg/mL
